Source: ChEMBL document CHEMBL3425470, “Discovery of imidazopyridine derivatives as highly potent respiratory syncytial virus fusion inhibitors” (ACS Med Chem Lett, 2015)
Values after ≈ are worked out from the molar mass of the structure shown.

Key:
[1] = Antiviral activity against Respiratory syncytial virus A infected in human Hep2 cells assessed as reduction of virus-induced cytopathic effect after 6 days by CCK-8 assay; type: functional, cell-based, Respiratory syncytial virus type A; settings: HEp-2, 144 h
[2] = Cytotoxicity against human Hep2 cells assessed as cell viability after 6 days by CCK-8 assay
[3] = Clearance in human liver microsomes at 1 uM
[4] = Clearance in mouse liver microsomes at 1 uM
in vitro = settings: PAMPA
Description: Permeability of the compound at 150 uM by PAMPA

[5] = Solubility of the compound in phosphate buffer at pH 6.5 after overnight incubation by LYSA method
Cytochrome P450 3A4 = Cytochrome P450 3A4 (Homo sapiens, UniProt P08684); assay: Inhibition of CYP3A4 in human liver microsomes by LC-MS/MS analysis
Cytochrome P450 2D6 = Cytochrome P450 2D6 (Homo sapiens, UniProt P10635); assay: Inhibition of CYP2D6 in human liver microsomes by LC-MS/MS analysis
Cytochrome P450 2C9 = Cytochrome P450 2C9 (Homo sapiens, UniProt P11712); assay: Inhibition of CYP2C9 in human liver microsomes by LC-MS/MS analysis
Sequence of Cytochrome P450 2C9 (P11712 whole entry): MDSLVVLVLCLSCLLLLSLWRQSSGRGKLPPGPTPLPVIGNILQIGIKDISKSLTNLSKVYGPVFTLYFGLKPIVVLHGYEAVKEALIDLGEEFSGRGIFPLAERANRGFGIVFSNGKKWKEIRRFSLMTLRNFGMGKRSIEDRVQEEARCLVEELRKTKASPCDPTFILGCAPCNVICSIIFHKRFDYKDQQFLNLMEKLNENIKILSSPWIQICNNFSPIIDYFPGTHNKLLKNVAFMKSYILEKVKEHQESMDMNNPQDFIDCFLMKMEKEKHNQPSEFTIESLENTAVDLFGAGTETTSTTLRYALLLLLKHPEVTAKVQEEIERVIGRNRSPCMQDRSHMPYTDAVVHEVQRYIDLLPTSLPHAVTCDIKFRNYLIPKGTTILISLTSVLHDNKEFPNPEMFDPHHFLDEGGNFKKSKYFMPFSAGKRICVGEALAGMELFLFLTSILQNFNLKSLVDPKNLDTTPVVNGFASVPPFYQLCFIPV

Sequence of Cytochrome P450 3A4 (P08684 whole entry): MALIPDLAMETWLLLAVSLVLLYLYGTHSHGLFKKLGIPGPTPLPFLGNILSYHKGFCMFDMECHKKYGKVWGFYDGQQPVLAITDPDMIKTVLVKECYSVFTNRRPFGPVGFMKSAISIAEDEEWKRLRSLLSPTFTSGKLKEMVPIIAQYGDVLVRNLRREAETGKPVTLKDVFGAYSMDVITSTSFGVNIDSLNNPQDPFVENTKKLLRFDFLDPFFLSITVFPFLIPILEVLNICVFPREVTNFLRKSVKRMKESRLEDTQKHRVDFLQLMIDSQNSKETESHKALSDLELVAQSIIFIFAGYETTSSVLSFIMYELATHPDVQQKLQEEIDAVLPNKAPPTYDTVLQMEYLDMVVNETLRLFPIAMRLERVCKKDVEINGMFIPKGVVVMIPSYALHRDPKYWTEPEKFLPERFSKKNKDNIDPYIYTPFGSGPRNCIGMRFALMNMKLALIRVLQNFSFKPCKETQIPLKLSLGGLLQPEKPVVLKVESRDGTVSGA
Sequence of Cytochrome P450 2D6 (P10635 whole entry): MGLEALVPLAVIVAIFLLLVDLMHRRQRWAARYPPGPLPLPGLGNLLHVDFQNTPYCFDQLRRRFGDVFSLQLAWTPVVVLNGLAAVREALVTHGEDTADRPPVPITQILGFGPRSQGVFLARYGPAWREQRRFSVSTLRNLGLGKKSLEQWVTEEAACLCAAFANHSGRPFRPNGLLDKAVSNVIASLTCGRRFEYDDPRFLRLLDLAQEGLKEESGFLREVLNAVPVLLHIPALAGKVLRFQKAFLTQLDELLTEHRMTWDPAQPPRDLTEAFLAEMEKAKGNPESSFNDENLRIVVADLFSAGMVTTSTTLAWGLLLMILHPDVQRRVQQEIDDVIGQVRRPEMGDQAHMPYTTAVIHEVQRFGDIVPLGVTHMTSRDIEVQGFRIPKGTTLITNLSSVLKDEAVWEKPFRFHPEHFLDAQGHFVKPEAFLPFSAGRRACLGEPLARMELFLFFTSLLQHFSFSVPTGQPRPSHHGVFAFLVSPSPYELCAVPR

O=c1n(Cc2nc3ccccc3n2CCCCO)c2cnccc2n1C1CC1
EC50 [1]: 28 nM

Cc1ccc2nc(Cn3c(=O)n(C4CC4)c4ccncc43)c(CCCCO)n2c1
EC50 [1]: 217 nM | CC50 at 144 h ([2]; Hep2 cells): > 100000 nM

O=c1n(Cc2nc3ccc(F)cn3c2CCCCO)c2cnccc2n1C1CC1
EC50 [1]: 96 nM | CC50 at 144 h ([2]; Hep2 cells): > 100000 nM

O=c1n(Cc2nc3ccc(Cl)cn3c2CCCCO)c2cnccc2n1C1CC1
EC50 [1]: 422 nM | CC50 at 144 h ([2]; Hep2 cells): > 100000 nM

O=c1n(Cc2nc3ccc(C(F)(F)F)cn3c2CCCCO)c2cnccc2n1C1CC1
EC50 [1]: 2890 nM | CC50 at 144 h ([2]; Hep2 cells): > 100000 nM

Cc1ccn2c(CCCCO)c(Cn3c(=O)n(C4CC4)c4ccncc43)nc2c1
EC50 [1]: 6 nM | CC50 at 144 h ([2]; Hep2 cells): > 100000 nM

CCc1ccn2c(CCCCO)c(Cn3c(=O)n(C4CC4)c4ccncc43)nc2c1
EC50 [1]: 7 nM | CC50 at 144 h ([2]; Hep2 cells): > 100000 nM

O=c1n(Cc2nc3cc(F)ccn3c2CCCCO)c2cnccc2n1C1CC1
EC50 [1]: 23 nM | CC50 at 144 h ([2]; Hep2 cells): > 100000 nM

O=c1n(Cc2nc3ccccn3c2CCCCO)c2cnccc2n1C1CC1
EC50 [1]: 17 nM | CC50 at 144 h ([2]; Hep2 cells): > 100000 nM

O=c1n(Cc2nc3cc(C(F)(F)F)ccn3c2CCCCO)c2cnccc2n1C1CC1
EC50 [1]: 217 nM | CC50 at 144 h ([2]; Hep2 cells): > 100000 nM

O=c1n(Cc2nc3cc(Cl)ccn3c2CCCCO)c2cnccc2n1C1CC1
CLhep predicted at 1 µM [3]: 11.5 mL/min/kg | CLhep predicted at 1 µM [4]: 80 mL/min/kg | EC50 [1]: 7 nM | Papp at 150 µM (in vitro): 3.1 ×10⁻⁶ cm/s | solubility [5]: 20 µg/mL (≈ 48.6 µM) | CC50 at 144 h ([2]; Hep2 cells): > 100000 nM

O=c1n(Cc2cn3ccc(Cl)cc3n2)c2cnccc2n1C1CC1
EC50 [1]: 3060 nM | CC50 at 144 h ([2]; Hep2 cells): 22300 nM

N#Cc1c(Cn2c(=O)n(C3CC3)c3ccncc32)nc2cc(Cl)ccn12
EC50 [1]: 86 nM | CC50 at 144 h ([2]; Hep2 cells): 22500 nM

O=c1n(Cc2nc3cc(Cl)ccn3c2CO)c2cnccc2n1C1CC1
EC50 [1]: 1930 nM | CC50 at 144 h ([2]; Hep2 cells): > 100000 nM

O=C(O)c1c(Cn2c(=O)n(C3CC3)c3ccncc32)nc2cc(Cl)ccn12
EC50 [1]: 25500 nM | CC50 at 144 h ([2]; Hep2 cells): > 100000 nM

O=C(NCCO)c1c(Cn2c(=O)n(C3CC3)c3ccncc32)nc2cc(Cl)ccn12
EC50 [1]: 2230 nM | CC50 at 144 h ([2]; Hep2 cells): > 100000 nM

CS(=O)(=O)CCNC(=O)c1c(Cn2c(=O)n(C3CC3)c3ccncc32)nc2cc(Cl)ccn12
EC50 [1]: 82 nM | CC50 at 144 h ([2]; Hep2 cells): > 100000 nM

O=C(O)/C=C/c1c(Cn2c(=O)n(C3CC3)c3ccncc32)nc2cc(Cl)ccn12
EC50 [1]: 207 nM | CC50 at 144 h ([2]; Hep2 cells): > 100000 nM

O=C(O)CCc1c(Cn2c(=O)n(C3CC3)c3ccncc32)nc2cc(Cl)ccn12
IC50 (Cytochrome P450 3A4): > 50000 nM | CLhep predicted at 1 µM [4]: 9.1 mL/min/kg | EC50 [1]: 53 nM | Papp at 150 µM (in vitro): 0.3 ×10⁻⁶ cm/s | solubility [5]: 541 µg/mL (≈ 1310 µM) | IC50 (Cytochrome P450 2D6): > 50000 nM | IC50 (Cytochrome P450 2C9): > 50000 nM | CC50 at 144 h ([2]; hep-2): > 100000 nM

NC(=O)CCc1c(Cn2c(=O)n(C3CC3)c3ccncc32)nc2cc(Cl)ccn12
CLhep predicted at 1 µM [3]: 13.5 mL/min/kg | CLhep predicted at 1 µM [4]: 59 mL/min/kg | EC50 [1]: 5 nM | Papp at 150 µM (in vitro): 2.5 ×10⁻⁶ cm/s | solubility [5]: 87 µg/mL (≈ 212 µM) | CC50 at 144 h ([2]; Hep2 cells): > 100000 nM

O=C(CCc1c(Cn2c(=O)n(C3CC3)c3ccncc32)nc2cc(Cl)ccn12)NCCO
CLhep predicted at 1 µM [3]: 2.9 mL/min/kg | CLhep predicted at 1 µM [4]: 47 mL/min/kg | EC50 [1]: 10 nM | Papp at 150 µM (in vitro): 0.96 ×10⁻⁶ cm/s | solubility [5]: 107 µg/mL (≈ 235 µM) | CC50 at 144 h ([2]; Hep2 cells): > 100000 nM

CS(=O)(=O)NC(=O)CCc1c(Cn2c(=O)n(C3CC3)c3ccncc32)nc2cc(Cl)ccn12
EC50 [1]: 46 nM | CC50 at 144 h ([2]; Hep2 cells): > 100000 nM

CS(=O)(=O)CCc1c(Cn2c(=O)n(C3CC3)c3ccncc32)nc2cc(Cl)ccn12
CLhep predicted at 1 µM [3]: 2.5 mL/min/kg | IC50 (Cytochrome P450 3A4): > 50000 nM | CLhep predicted at 1 µM [4]: 35 mL/min/kg | EC50 [1]: 6 nM | Papp at 150 µM (in vitro): 3.6 ×10⁻⁶ cm/s | solubility [5]: 59 µg/mL (≈ 132 µM) | IC50 (Cytochrome P450 2D6): > 50000 nM | IC50 (Cytochrome P450 2C9): > 50000 nM | CC50 at 144 h ([2]; Hep2 cells): > 100000 nM

CCS(=O)(=O)CCc1c(Cn2c(=O)n(C3CC3)c3ccncc32)nc2cc(Cl)ccn12
CLhep predicted at 1 µM [3]: 4.6 mL/min/kg | IC50 (Cytochrome P450 3A4): > 50000 nM | CLhep predicted at 1 µM [4]: 62 mL/min/kg | EC50 [1]: 3 nM | Papp at 150 µM (in vitro): 2.6 ×10⁻⁶ cm/s | solubility [5]: 46 µg/mL (≈ 100 µM) | IC50 (Cytochrome P450 2D6): > 50000 nM | IC50 (Cytochrome P450 2C9): > 50000 nM | CC50 at 144 h ([2]; hep-2): > 100000 nM

CCCCNc1c(Cn2c(=O)n(C3CC3)c3ccncc32)nc2cc(Cl)ccn12
EC50 [1]: 41 nM | CC50 at 144 h ([2]; Hep2 cells): > 100000 nM

O=c1n(Cc2nc3cc(Cl)ccn3c2NC2CCCCC2)c2cnccc2n1C1CC1
EC50 [1]: 72 nM | CC50 at 144 h ([2]; Hep2 cells): > 100000 nM

O=c1n(Cc2nc3cc(Cl)ccn3c2NCCN2CCOCC2)c2cnccc2n1C1CC1
EC50 [1]: 83 nM | CC50 at 144 h ([2]; Hep2 cells): > 100000 nM

O=c1n(Cc2nc3cc(Cl)ccn3c2CNCCO)c2cnccc2n1C1CC1
EC50 [1]: 683 nM | CC50 at 144 h ([2]; Hep2 cells): > 100000 nM

CS(=O)(=O)c1ccc(-c2c(Cn3c(=O)n(C4CC4)c4ccncc43)nc3cc(Cl)ccn23)cc1
EC50 [1]: 89 nM | CC50 at 144 h ([2]; Hep2 cells): > 100000 nM
